Data taken from patent US10800725B2, “Arylpropionyl-triketone antibacterial agents” (priority 2010, dated 2020).
Values after ≈ are worked out from the molar mass of the structure shown.

How the values were obtained:
[1] = test system: Streptococcus pyogenes ATCC 12344; experiment: MIC, spiral gradient endpoint assay (GC II agar, 5% CO2); settings: ATCC12344, read-out: MIC S. pyogenes 12344
[2] = test system: Enterococcus faecalis ATCC 19433; experiment: MIC, spiral gradient endpoint assay; settings: ATCC19433, read-out: MIC E. faecalis 19433
[3] = test system: Streptococcus pneumoniae ATCC 49619; experiment: MIC, spiral gradient endpoint assay (GC II agar, 5% CO2); settings: ATCC49619, read-out: MIC S. pneumoniae 49619
[4] = test system: Bacillus anthracis Vollum-1b; experiment: microbe, parasite or virus in culture; format: cell-based; settings: VOLLUM1B, read-out: MIC B. anthracis Vollum-1b
[5] = test system: Francisella tularensis SCHU4; experiment: microbe, parasite or virus in culture; format: cell-based; settings: SCHU4, read-out: MIC F. tularensis SCHU4
[6] = test system: Mycobacterium tuberculosis H37Rv; experiment: MIC, microplate Alamar Blue assay; settings: read-out: MIC M. tuberculosis H37Rv
[7] = molecular target: S. aureus RNA polymerase core enzyme + σA (Staphylococcus aureus (strain NCTC 8325 / PS 47), UniProt P47768+Q2G0N5); experiment: Fluorescence-detected RNA polymerase assay, S. aureus RNAP; format: biochemical
Method: (§1) Fluorescence-detected RNA polymerase assays with E. coli RNA polymerase were performed by a modification of the procedure of Kuhlman et al., 2004 [Kuhlman, P., Duff, H. & Galant, A. (2004) A fluorescence-based assay for multisubunit DNA-dependent RNA polymerases. Anal. Biochem. 324, 183-190]. Reaction mixtures contained (20 μl): 0-100 nM test compound, 75 nM E. coli RNA polymerase σ^70 holoenzyme, 20 nM 384 bp DNA fragment containing the bacteriophage T4 N25 promoter, 100 μM ATP, 100 μM GTP, 100 μM UTP, 100 μM CTP, 50 mM Tris-HCl, pH 8.0, 100 mM KCl, 10 mM MgCl2, 1 mM DTT, 10 μg/ml bovine serum albumin, and 5.5% glycerol. Reaction components other than DNA and NTPs were pre-incubated for 10 min at 37° C. Reactions were carried out by addition of DNA and incubation for 5 min at 37° C., followed by addition of NTPs and incubation for 60 min at 37° C. DNA was removed by addition of 1 μl 5 mM CaCl2 and 2 U DNaseI (Ambion, Inc.), followed by incubation for 90 min at 37° C. RNA was quantified by addition of 100 μl RiboGreen RNA Quantitation Reagent (Invitrogen, Inc.; 1:500 dilution in Tris-HCl, pH 8.0, 1 mM EDTA), followed by incubation for 10 min at 25° C., followed by measurement of fluorescence intensity [excitation wavelength=485 nm and emission wavelength=535 nm; QuantaMaster QM1 spectrofluorometer (PTI, Inc.)]. IC50 is defined as the concentration of inhibitor resulting in 50% inhibition of RNA polymerase activity.
(§2) Fluorescence-detected RNA polymerase assays with S. aureus RNA polymerase were performed as in Example 21.1, using reaction mixtures containing (20 μl): 0-100 nM test compound, 75 nM S. aureus RNA polymerase core enzyme, 300 nM S. aureus σ^A, 20 nM 384 bp DNA fragment containing the bacteriophage T4 N25 promoter, 100 μM ATP, 100 μM GTP, 100 μM UTP, 100 μM CTP, 40 mM Tris-HCl, pH 8.0, 80 mM NaCl, 5 mM MgCl2, 2.5 mM DTT, and 12.7% glycerol. IC50 is defined as the concentration of inhibitor resulting in 50% inhibition of RNA polymerase activity.

[8] = molecular target: E. coli RNA polymerase σ70 holoenzyme (Escherichia coli (strain K12), UniProt P0A8T7+P0A8V2); experiment: Fluorescence-detected RNA polymerase assay, E. coli RNAP; format: biochemical
Method: as §1

[9] = test system: Moraxella catarrhalis ATCC 25238; experiment: MIC, spiral gradient endpoint assay (GC II agar, 5% CO2); settings: ATCC25238, read-out: MIC M. catarrhalis 25238
[10] = test system: Staphylococcus aureus ATCC 12600; experiment: MIC, spiral gradient endpoint assay; settings: ATCC12600, read-out: MIC S. aureus 12600
[11] = test system: Escherichia coli D21f2tolC; experiment: MIC, spiral gradient endpoint assay; settings: read-out: MIC E. coli D21f2tolC
[12] = molecular target: M. tuberculosis RNA polymerase core enzyme + σA (Mycobacterium tuberculosis (strain ATCC 25618 / H37Rv), UniProt P9WGY7+P9WGY9); experiment: Fluorescence-detected RNA polymerase assay, M. tuberculosis RNAP; format: biochemical
Method: as §1
as §2, with “M. tuberculosis” for “S. aureus”

[13] = test system: Enterococcus faecium ATCC 19434; experiment: MIC, spiral gradient endpoint assay; settings: ATCC19434, read-out: MIC E. faecium 19434
[14] = test system: Staphylococcus aureus BAA-1707 MRSA (MW2); experiment: MIC, spiral gradient endpoint assay; settings: read-out: MIC S. aureus MRSA 1707
[15] = test system: Staphylococcus aureus ATCC 13709 MSSA; experiment: MIC, spiral gradient endpoint assay; settings: read-out: MIC S. aureus 13709
[16] = test system: Staphylococcus aureus BAA-1717 MRSA (USA300); experiment: MIC, spiral gradient endpoint assay; settings: read-out: MIC S. aureus MRSA 1717

Row | SMILES | MIC [1] | MIC [2] | MIC [3] | MIC [4] | MIC [5] | MIC [6] | IC50 [7] | IC50 [8] | MIC [9] | MIC [10] | MIC [11] | IC50 [12] | MIC [13] | MIC [14] | MIC [15] | MIC [16]
1 | CC(C)CCC1=C(O)C(CCC(C)C)(CCC(C)C)C(=O)C(C(=O)CCc2ccccc2Cl)=C1O [Compound 1, 3,5-dihydroxy-2-(3-(2-chlorophenyl)propanoyl)-4,6,6-triisopentylcyclohexa-2,4-dienone] | 19 µg/mL (≈ 37.8 µM) | 2 µg/mL (≈ 3.98 µM) | 15 µg/mL (≈ 29.8 µM) | 0.049 µg/mL (≈ 0.0974 µM) | 6.25 µg/mL (≈ 12.4 µM) | 50 µg/mL (≈ 99.4 µM) | 5700 nM | 2100 nM | > 40 µg/mL | 0.6 µg/mL (≈ 1.19 µM) | 24 µg/mL (≈ 47.7 µM) | 1200 nM |  |  |  | 
2 | CC(C)CCC1=C(O)C(CCC(C)C)(CCC(C)C)C(=O)C(C(=O)CCc2cccc(Cl)c2)=C1O [Compound 2, 3,5-dihydroxy-2-(3-(3-chlorophenyl)propanoyl)-4,6,6-triisopentylcyclohexa-2,4-dienone] | 19 µg/mL (≈ 37.8 µM) | 1 µg/mL (≈ 1.99 µM) | 12 µg/mL (≈ 23.9 µM) | 0.098 µg/mL (≈ 0.195 µM) | > 50 µg/mL | 50 µg/mL (≈ 99.4 µM) | 5900 nM | 2500 nM | 19 µg/mL (≈ 37.8 µM) | 0.5 µg/mL (≈ 0.994 µM) | 15 µg/mL (≈ 29.8 µM) | 2200 nM |  |  |  | 
3 | CC(C)CCC1=C(O)C(CCC(C)C)(CCC(C)C)C(=O)C(C(=O)CCc2ccc(Cl)cc2)=C1O [Compound 3, 3,5-dihydroxy-2-(3-(4-chlorophenyl)propanoyl)-4,6,6-triisopentylcyclohexa-2,4-dienone] | 19 µg/mL (≈ 37.8 µM) | 1 µg/mL (≈ 1.99 µM) | 19 µg/mL (≈ 37.8 µM) | 0.049 µg/mL (≈ 0.0974 µM) | > 50 µg/mL | 50 µg/mL (≈ 99.4 µM) | 2400 nM | 630 nM | 19 µg/mL (≈ 37.8 µM) | 0.4 µg/mL (≈ 0.795 µM) | 8 µg/mL (≈ 15.9 µM) | 770 nM |  |  |  | 
4 | COc1ccccc1CCC(=O)C1=C(O)C(CCC(C)C)=C(O)C(CCC(C)C)(CCC(C)C)C1=O [Compound 4, 3,5-dihydroxy-2-(3-(2-methoxyphenyl)propanoyl)-4,6,6-triisopentylcyclohexa-2,4-dienone] | 15 µg/mL (≈ 30.1 µM) | 3 µg/mL (≈ 6.02 µM) | 2.7 µg/mL (≈ 5.41 µM) | 0.098 µg/mL (≈ 0.197 µM) | > 50 µg/mL | > 50 µg/mL | 4300 nM | 1900 nM | > 40 µg/mL | 0.6 µg/mL (≈ 1.2 µM) | 12 µg/mL (≈ 24.1 µM) | 1600 nM |  |  |  | 
5 | COc1cccc(CCC(=O)C2=C(O)C(CCC(C)C)=C(O)C(CCC(C)C)(CCC(C)C)C2=O)c1 [Compound 5, 3,5-dihydroxy-2-(3-(3-methoxyphenyl)propanoyl)-4,6,6-triisopentylcyclohexa-2,4-dienone] | 7.1 µg/mL (≈ 14.2 µM) | 2 µg/mL (≈ 4.01 µM) | 3.5 µg/mL (≈ 7.02 µM) | 0.049 µg/mL (≈ 0.0983 µM) | 1.56 µg/mL (≈ 3.13 µM) | 50 µg/mL (≈ 100 µM) | 3100 nM | 1100 nM | 19 µg/mL (≈ 38.1 µM) | 0.4 µg/mL (≈ 0.802 µM) | 2 µg/mL (≈ 4.01 µM) | 1100 nM |  |  |  | 
6 | COc1ccc(CCC(=O)C2=C(O)C(CCC(C)C)=C(O)C(CCC(C)C)(CCC(C)C)C2=O)cc1 [Compound 6, 3,5-dihydroxy-2-(3-(4-methoxyphenyl)propanoyl)-4,6,6-triisopentylcyclohexa-2,4-dienone] | 15 µg/mL (≈ 30.1 µM) | 12 µg/mL (≈ 24.1 µM) | 5.6 µg/mL (≈ 11.2 µM) | 0.098 µg/mL (≈ 0.197 µM) | > 50 µg/mL | 50 µg/mL (≈ 100 µM) | 3400 nM | 1800 nM | 19 µg/mL (≈ 38.1 µM) | 0.6 µg/mL (≈ 1.2 µM) | 6 µg/mL (≈ 12 µM) | 1200 nM |  |  |  | 
7 | CC(C)CCC1=C(O)C(CCC(C)C)(CCC(C)C)C(=O)C(C(=O)CCc2ccccc2)=C1O [Compound 15, 3,5-dihydroxy-2-(3-phenylpropanoyl)-4,6,6-triisopentylcyclohexa-2,4-dienone] | 12 µg/mL (≈ 25.6 µM) | 1 µg/mL (≈ 2.13 µM) | 12 µg/mL (≈ 25.6 µM) | 0.098 µg/mL (≈ 0.209 µM) | 0.19 µg/mL (≈ 0.405 µM) | 50 µg/mL (≈ 107 µM) | 11000 nM | 3500 nM | 25 µg/mL (≈ 53.3 µM) | 0.5 µg/mL (≈ 1.07 µM) | 4 µg/mL (≈ 8.53 µM) | 2600 nM | 1.5 µg/mL (≈ 3.2 µM) | 0.4 µg/mL (≈ 0.853 µM) | 0.5 µg/mL (≈ 1.07 µM) | 0.5 µg/mL (≈ 1.07 µM)
8 | CCC1=C(O)C(CC)(CC)C(=O)C(C(=O)CCc2ccccc2)=C1O [Compound 16, 3,5-dihydroxy-2-(3-phenylpropanoyl)-4,6,6-triethylcyclohexa-2,4-dienone] | 19 µg/mL (≈ 55.5 µM) | 19 µg/mL (≈ 55.5 µM) | 15 µg/mL (≈ 43.8 µM) |  |  | > 50 µg/mL | > 400000 nM | > 400000 nM | > 40 µg/mL | 4 µg/mL (≈ 11.7 µM) | 5 µg/mL (≈ 14.6 µM) | > 400000 nM | 5 µg/mL (≈ 14.6 µM) | 6 µg/mL (≈ 17.5 µM) | 6 µg/mL (≈ 17.5 µM) | 8 µg/mL (≈ 23.4 µM)
9 | CCCC1=C(O)C(CCC)(CCC)C(=O)C(C(=O)CCc2ccccc2)=C1O [Compound 17, 3,5-dihydroxy-2-(3-phenylpropanoyl)-4,6,6-tripropylcyclohexa-2,4-dienone] | 19 µg/mL (≈ 49.4 µM) | 3 µg/mL (≈ 7.8 µM) | 15 µg/mL (≈ 39 µM) |  |  | > 50 µg/mL | > 400000 nM | 70000 nM | > 40 µg/mL | 1 µg/mL (≈ 2.6 µM) | 1.3 µg/mL (≈ 3.38 µM) | 140000 nM | 1 µg/mL (≈ 2.6 µM) | 2 µg/mL (≈ 5.2 µM) | 2 µg/mL (≈ 5.2 µM) | 2 µg/mL (≈ 5.2 µM)
10 | CCCCC1=C(O)C(CCCC)(CCCC)C(=O)C(C(=O)CCc2ccccc2)=C1O [Compound 18, 3,5-dihydroxy-2-(3-phenylpropanoyl)-4,6,6-tributylcyclohexa-2,4-dienone] | 12 µg/mL (≈ 28.1 µM) | 11 µg/mL (≈ 25.8 µM) | 9.3 µg/mL (≈ 21.8 µM) | 0.049 µg/mL (≈ 0.115 µM) | 25 µg/mL (≈ 58.6 µM) | 50 µg/mL (≈ 117 µM) | 80000 nM | 33000 nM | 24 µg/mL (≈ 56.3 µM) | < 0.5 µg/mL | 1.2 µg/mL (≈ 2.81 µM) | 22000 nM | 0.6 µg/mL (≈ 1.41 µM) | 0.8 µg/mL (≈ 1.88 µM) | 0.8 µg/mL (≈ 1.88 µM) | < 0.5 µg/mL
